The test has as its target Nonstructural protein 3 (Zika virus) (UniProt A0A024AXB9). The test can be described thus: Functional biochemical assay to identify treatments for viral infectious disease that targets Zika NS2B-NS3 protease. Utilizing a direct enzyme activity measurement method, reading the fluorescence intensity is used to characterize the relative potency of inhibitors as % inhibition. Synthetic construct has been made based on Zika virus (strain PRVABC59) by Centre for Medicines Discovery, University of Oxford, and the assay has been performed by Stanford University.The protocol is publicly available: dx.doi.org/10.17504/protocols.io.4r3l29533v1y/v1. The conditions noted are these: Concentration 25.0 uM, Number of replicates 1.0.

What is called inhibition is the drop in the measured response relative to a control, in per cent. Low readings indicate little suppression, high ones strong suppression.

Sequence of Nonstructural protein 3 (Zika virus) (A0A024AXB9 as listed by the source): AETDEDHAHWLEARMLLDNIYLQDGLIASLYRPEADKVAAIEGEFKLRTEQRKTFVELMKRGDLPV

The compound `Cc1c(C=O)c2ccccn2c1C#N` returned an inhibition of 48.9%.
`O=Cc1ccc(N2CCC(C(=O)O)CC2)cc1`: the inhibition turned out to be 66%.
Compound `O=Cc1ccc(N2CCCCC2)cc1` had an inhibition of 49%.
The same measure for `Cc1c(C=O)c2ccccn2c1C(=O)c1ccncc1`: 48.3%.
Compound `O=Cc1ccc(N2CCC(C(=O)O)CC2)o1` showed an inhibition of 55.4%.
`Cc1nc(C=O)c2ccccn12` came in with an inhibition of 45%.
`O=Cc1ccc(N2CCCCCC2)cc1` came in with an inhibition of 46.5%.
On to `CC[C@H]1CO[C@H](C)CN1c1ccc(C=O)cn1`, for which the inhibition came out at 61.5%.
With `Nc1ccc2ccc(B(O)O)cc2c1` the figure was 81%.
The same measure for `O=Cc1nc(-c2ccccc2Cl)n2ccccc12`: 48.3%.
For the compound `Cc1cc(NS(=O)(=O)c2ccc(S(=O)(=O)F)cc2)c[nH]c1=O`, the inhibition was determined as 60.6%.
The same measure for `CN(C)c1ccc(C=C(C#N)C(N)=O)cc1`: 50.7%.
